# The source made the active and inactive calls.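 How the source made its calls: active means compounds giving half or more protection of infected cells from virus-caused growth loss, again on retest; inactive means the rest.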
# System: CEM cells HIV-1 protection, formazan growth assay
# Assay: NCI AIDS Antiviral Assay
# Conditions: for IC50: measured here: growth of uninfected CEM cells
# Method in brief: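 Protection of CEM cells against HIV-1 measured as cell growth via soluble formazan read-out, with five concentrations tested on both infected and uninfected cells; failure to protect may reflect toxicity.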
SMILES,EC50 [µM],IC50 [µM],outcome
O=C1CCCC(=O)NNC(=O)NCCCCCCNC(=O)NN1,> 30.2,> 30.2,
COc1cc2c(cc1OC)C(C#N)(Cc1ccccc1)N(C(=O)c1ccccc1)C=C2 (configuration not stated),,,inactive
CCCCCCOC(=O)c1[nH]c(=O)n(CCCCCC)c(=O)c1N,> 200,151,
O=C1CSc2ncccc2N1c1ccc([N+](=O)[O-])cn1,> 200,> 200,
O=C1CC(CC(=O)c2ccc(Br)cc2)C(=O)/C1=C(/O)c1ccc(Br)cc1 (configuration not stated),> 200,41.7,
CCC[CH2][Ge]([CH2]CCC)([CH2]CCC)[O]C(=O)C(O)c1ccccc1 (configuration not stated),4.9,12,
CC(C)(C)[Si](C)(C)OCC1OC(n2ccc(=O)[nH]c2=O)C(O[Si](C)(C)C(C)(C)C)C12OC2C(=O)NN (configuration not stated),> 200,7.41,
C=C(C)c1nc(C#N)c(N)o1,> 200,> 200,
Cc1cccc(C)c1NC(=O)CCCC(=O)C1CCC/C1=N\NC(=O)C(=O)NN (configuration not stated),> 64.6,> 64.6,
O=C(OC1CCC(=C2SCCCS2)[C@H]1C1SCCCS1)c1ccccc1 (some centres not stated),,,inactive
CN(C)CCCn1c2c(c3ccccc31)CCCCCC2,> 200,31.6,
CCCCCCCCCCCC(=O)OCC1OC(n2cc(F)c(=O)[nH]c2=O)C(NC(=O)OCc2ccccc2)C(O)C1O (configuration not stated),> 30.9,> 30.9,
CCOC(=O)C1=C(C)N2CCCOC2(C)C(C(=O)OC)C1c1cccc([N+](=O)[O-])c1 (configuration not stated),> 200,69.2,
CCC1(c2c(F)c(F)c(N)c(F)c2F)CCC(=O)NC1=O (configuration not stated),,,inactive
CCOC(=O)/C(=C/c1cccc(Cl)c1)N(CC)CC,> 91.2,> 91.2,
O=C1NC(=O)C2(CCN(Cc3ccccc3)CC2)N1c1ccccc1,> 200,> 200,
CC(=O)C(=Cc1ccc(N(C)C)cc1)C(C)=O,> 562,112,
Cc1nc2sc3c(c2c(=O)o1)CCCC3,> 200,33.1,
CC(=O)Oc1c(OC(C)=O)c(C=O)c2c(OC(C)=O)c(-c3c(C)cc4c(C(C)C)c(OC(C)=O)c(OC(C)=O)c(C=O)c4c3OC(C)=O)c(C)cc2c1C(C)C,> 200,8.91,
Cc1cc(=O)[nH]c(NNC(C#N)c2ccco2)n1 (configuration not stated),> 380,> 380,
CC(=O)OCC1OC(N2C(c3ccccc3)=CC(c3ccccc3)C(C#N)=C2S)C(OC(C)=O)C(OC(C)=O)C1OC(C)=O (configuration not stated),> 200,77.6,
C=CCOCn1ccc(=O)[nH]c1=O,> 200,> 200,
O=C(Nc1ccc(Cl)c(Cl)c1)Nc1ccc([N+](=O)[O-])cn1,> 200,> 200,
NNC(=O)CC(=O)Nc1ccccc1F,> 1170,871,

SMILES,EC50 [µM],IC50 [µM],outcome
O=C(CCN1CCN(CCC(=O)c2ccccc2)CC1)c1ccccc1,> 200,9.12,
COC1=CC(O)(CC(N)=O)c2ccccc2C1=O (configuration not stated),> 1000,> 1000,
CC1CC(c2ccc([N+](=O)[O-])cc2)=Nc2ccccc2S1 (configuration not stated),> 9.12,> 9.12,
O=[N+]([O-])c1cc2cnn(CO)c2cc1[N+](=O)[O-],> 200,16.6,
O=C1Nc2ccccc2Cn2c1cc1oc(-c3ccccc3)cc12,> 200,191,
Clc1ccc2c(c1)C1C(CO2)C(c2ccccc2)=NN1c1ccccc1 (configuration not stated),> 27.5,> 27.5,
CC(C)(C)C1CCC2c3c([nH]c4ccccc34)C3C(=O)N(c4cccc([N+](=O)[O-])c4)C(=O)C3C2C1 (configuration not stated),> 200,4.79,
COc1cc(OC)c2c(c1)C(=O)c1cccc(O)c1C2=O,,,inactive
Cc1cccc2c(N)c3cccc(C(=O)NCCCNCCN)c3nc12,> 0.2,0.12,
COc1cc(O)c2c(c1)C(=O)C1=C(C2=O)C(O)C[C@@](C)(O)C1 (some centres not stated),,,inactive
O=C(CC(=O)Nc1ccccc1)N/N=C/c1cc(N=Nc2ccc(Br)cc2)ccc1O,> 200,1.35,
C[N+](C)=c1nc(N2CCOCC2)ss1,,,inactive
COc1ccc2c(c1)OC(=O)CC2c1ccc(OC)c(OC)c1 (configuration not stated),> 200,> 200,
CC1CC[C@@]2(O)C(CCCC2(C)C)[C@]1(C)CCc1ccoc1 (some centres not stated),,,inactive
O=C(O)/C=C/c1ccc(O)c(O)c1,> 1380,66.1,
Cc1ccc(S(=O)(=O)N(C)CC(=O)c2ccccc2)cc1,> 117,> 117,
C=C(CCC(Cl)C(O)CO)[Si](C)(C)C (configuration not stated),> 110,> 110,
CCOC(=O)CC(NCc1ccc(N=Cc2nc3ccc(C(F)(F)F)cc3nc2-c2ccccc2)cc1)C(=O)OCC (configuration not stated),> 200,162,
CCOC(=O)c1ncoc1[C@H]1COC(C)(C)O1,,,inactive
[C-]#[O+].[C-]#[O+].[C-]#[O+].[Cr].c1ccc(P(CC[PH+](CC[PH+](CC[PH+](c2ccccc2)c2ccccc2)c2ccccc2)c2ccccc2)c2ccccc2)cc1 (configuration not stated),> 4.68,> 4.68,
Nc1cnc(Nc2cccc3ccccc23)o1,> 200,> 200,
Nc1c(Cl)ncnc1NCC1(CO)CCC1,> 200,158,
CCN(CCO)C(=O)C1(c2ccccc2)CCCCC1,> 501,60.3,
Cc1c(Cl)nc(Nc2nc3ccccc3[nH]2)nc1Cl,,,inactive

SMILES,EC50 [µM],IC50 [µM],outcome
CC(C)N1CSC(=S)NCCNC(=S)SC1,> 200,95.5,
C#CCn1c(I)cc2c(c1=O)COC(=O)[C@]2(O)CC,> 200,> 200,
Oc1cc(F)cc2cccnc12,,,inactive
O=C1NC(=O)C2C3C=CC(C12)C1C2C(=O)NC(=O)C2C31 (configuration not stated),> 95.5,> 95.5,
Nc1nc2cnc(COc3ccccc3)nc2c(=O)[nH]1,> 200,> 200,
COc1cc2c(cc1Oc1c(Oc3c(O)c(OC)cc4c3C(CC(C)C)N(C)CC4)c(OC)cc3c1C(CC(C)C)N(C)CC3)C(CC(C)C)N(C)CC2 (configuration not stated),,,inactive
Nc1ncnc2c1ncn2CC(O)CO (configuration not stated),,,inactive
Clc1nc(Cl)nc(-c2ccccc2)n1,> 200,> 200,
N#C/C(=C\c1ccccc1)c1ccc(Cl)cc1,> 200,57.5,
Cc1ccc(NC(=O)CC/C(CC(=O)c2ccc(F)cc2)=N\NC(=O)C(=O)NN)cc1C,> 11.7,> 11.7,
O=C1C2C(C(=O)N1c1ccccc1)C(c1ccccc1)N(c1ccccc1)C2c1ccccc1 (configuration not stated),> 22.4,15.8,
O=C(c1c(O)cc(O)cc1O)C1Cc2ccccc21 (configuration not stated),,,inactive
Clc1ccc(/C=N/Nc2nnc3c(n2)[nH]c2ccccc23)cc1,> 200,> 200,
Cc1c(O)c(C)c2c(C)cn(C(=O)C(C)(C)C)c2c1C,> 200,30.2,
Cc1ccc(C(=O)OC(C)C)cc1N=NN(C)C,> 55,> 55,
COc1ccc(C2OC(N)=C(C#N)C3=C2C(C)CCC3)cc1OC (configuration not stated),501,631,
CN(CCC#N)C1=CCCC1,> 200,> 200,
C=C1C(=O)O[C@H]2C[C@@]3(COC(C)=O)C=COC=C(COC(=O)C(C)C)C3CC12 (some centres not stated),> 200,30.9,
N#CCCN(C(=O)Nc1ccccc1)[C@H]1CCCC[C@@H]1N(C(=O)Nc1ccccc1)c1ccccc1,> 200,33.1,
COC(=O)c1csnn1,> 1740,> 1740,
Cc1cccc(/C=C2\CCCCCC2=O)c1,> 200,53.7,
Cc1c(C#N)c2n(c1C)CCN2,> 1550,> 1550,
O=[N+]([O-])c1cccc(C2=NOC3C4CCC(C4)C23)c1 (configuration not stated),0.135,66.1,
COC(=O)c1cc(C(CCl)c2cc(C(=O)OC)c(OC)c(Br)c2C)c(C)c(Br)c1OC,> 200,8.71,

SMILES,EC50 [µM],IC50 [µM],outcome
CCN(CC)CCC(=O)c1ccc(Sc2ccc(F)cc2)cc1,,,inactive
CN(CCN(C)C(=O)CCn1cc(F)c(=O)[nH]c1=O)C(=O)CCn1cc(F)c(=O)[nH]c1=O,> 57.5,> 57.5,
O=c1oc2ccc(O)cc2c2ccccc12,> 170,38,
COc1cc(CNc2nc3ccccc3nc2-c2cccs2)cc(OC)c1OC,> 200,14.8,
COc1ccc2c(c1)CCN1CCCc3ccccc3C21 (configuration not stated),> 200,26.9,
CC(=O)OCC1OC(NC(=S)Nc2nc(-c3ccccc3)cc(-c3cc(Cl)ccc3O)n2)C(OC(C)=O)C(OC(C)=O)C1OC(C)=O (configuration not stated),> 200,5.13,
COc1ccc(-c2cc(C(=O)O)c3cc4ccccc4cc3n2)cc1Br,,,inactive
NC(=O)c1c([N+](=O)[O-])cc(C(F)(F)F)cc1[N+](=O)[O-],,,inactive
CN1CCN(CC(=O)N2CCCn3c2nc2ccccc2c3=O)CC1,> 200,> 200,
Cn1cc(NC(=O)c2cc(NC(=O)CCCCCCC(=O)Nc3cc(C(=O)Nc4cc(C(=O)NCCC(=N)N)n(C)c4)n(C)c3)cn2C)cc1C(=O)NCCC(=N)N,> 204,35.5,
Cc1ccc(N2C=Nn3c(nc4sc5c(c4c3=O)CCCC5)C2)cc1,25.1,42.7,
CCN(CC)C(=S)S,> 1450,39.8,
COc1ccc(N=Cc2ccc(N(CCC#N)S(=O)(=O)c3ccccc3)cc2C)cc1,> 219,112,
COC1OC(COCc2ccc(Cl)cc2)C(OCc2ccc(Cl)cc2)C1N=[N+]=[N-] (configuration not stated),,,inactive
CCNCC(O)COc1ccc2c(c1)[n+]([O-])nc(N)[n+]2[O-] (configuration not stated),> 200,13.8,
O=CN/C=C/c1ccccc1,> 200,> 200,
COC1CCC(C(C)O)OO1 (configuration not stated),> 200,33.9,
CC(C)(C)c1ccc(-c2nc3ccc(Cl)cc3c(=O)o2)cc1,> 200,9.33,
c1ccc(CN2COCO[C@H]3CCC[C@@H]32)cc1,> 200,123,
COP1(=S)OCC2CCC[C@@H]2O1 (some centres not stated),,,inactive
O=C1NC(O)c2cc(Cl)cc(Cl)c2O1 (configuration not stated),,,inactive

# From PubChem BioAssay AID179 (DTP/NCI, 2004)
